In patent US5385931A, “Sulfonamides derived from benzocyclic or benzoheterocyclic acids, their preparation and application in therapeutics” (Pierre Fabre Medicament, priority 1989, dated 1995):
In brackets after ≈: the same amount, converted by molar mass.

Columns and labels:
Solubility in water = format: physicochemical; settings: for solubility: read-out: soluble in water to give a solution of
[1] = test system: blood platelet aggregation induced by U.46619; assay: In vitro rabbit platelet aggregation induced by U.46619; format: cell-based, New Zealand rabbits; settings: Oryctolagus cuniculus; rabbit platelet-rich plasma; U.46619 1.05 to 2.44 micromoles; pre-incubated 1 min at 37° C., pH 7.4
Description: (§1) Blood is taken from white male New Zealand rabbits which have not received any treatment capable of disrupting the platelet functions.
(§2) After having allowed the first drops to flow freely, the blood is collected in plastic tubes containing 3.8% (wt/v) trisodium citrate 5.5 H2 O, the citrate/blood ratio being 1 volume of citrate per 9 volumes of blood.
(§3) The blood platelet aggregation study is carried out starting from plasmas rich in platelets obtained by centrifuging the above blood samples at low speed. It is measured with the aid of a Mustard aggregometer at a wavelength of 609 nm with a stirring speed of 1,100 revolutions/min.
(§4) The products to be studied are dissolved in polyethylene glycol 300 and pre-incubated for 1 min at 37° C. under a volume of 10 microliters,in a mixture of 300 microliters of plasma rich in platelets and 90 microliters of Tyrode's solution without calcium, pH=7.4. (Corresponding controls are produced by pre-incubating the vehicle on its own instead of solutions of products to be studied).
(§5) The blood platelet aggregation is initiated by the addition either of U.46619 (final concentrations: 1.05 to 2.44 micromoles) or of arachidonic acid (final concentrations: 50 to 100 micromoles).
(§6) Starting from the parameter of the maximum percentage aggregation, the anti-aggregant activity of a product is calculated using the formula: [formula]
One curve: anti-aggregant activity=f (final concentration) is plotted for each product and the 50% inhibitory concentration determined from the graph.
In the case of aggregation with U.46619, the IC50 are given in Table I for compounds 1, 2, 3, 7 and 11 by way of non-limiting example: […]

conventional mice = assay: Toxicology, intraperitoneal, mice; format: in vivo; settings: 500 mg per kilo intraperitoneally
Description: The chemical compounds described above were subjected to toxicity checks. This study was carried out on conventional mice weighing from 20 to 22 g. The compounds of general formula I were administered intraperitoneally.

Solubility in DMSO = format: physicochemical
[2] = test system: platelet aggregation induced by U.46619; assay: Ex vivo inhibition of U.46619-induced platelet aggregation after oral administration in rabbits; parameters: species or system New Zealand rabbits; settings: t=+90 min relative to control curve at t=0
Description: b) Ex vivo action: inhibition of anti-aggregant effects using U.46619 in rabbits.
Because of their powerful activity in vitro, the anti-aggregant effects ex vivo were studied in rabbits. The substances of general formula I, which are the subject of the present invention, are administered orally as a 1% suspension in carboxymethylcellulose to natural male New Zealand rabbits weighing 2.5 to 3 kg after going without nourishment for about 18 h. Blood samples were taken by cardiac puncture at time 0 and after 90 min. The aggregant U.46619 was used under the same conditions as above and the measurement of the aggregation was carried out using the same technique.
The results are expressed in Table III in terms of percentage inhibition of the maximum amplitude of the aggregation curve at t=+90 min relative to the control curve at t=0 and are given for compounds 2 and 3 by way of non-limiting example: […]

[3] = test system: blood platelet aggregation induced by arachidonic acid; assay: In vitro rabbit platelet aggregation induced by arachidonic acid; format: cell-based, New Zealand rabbits; settings: arachidonic acid 50 to 100 micromoles; for inhibition at 100 µM / inhibition at 10 µM: Oryctolagus cuniculus, Platelet; for inhibition at 100 µM: final concentration of compound 10^-4 M; for inhibition at 10 µM: final concentration of compound 10^-5 M
Description: as §1, §2, §3, §4, §5, §6
The percentage inhibition of the aggregation with arachidonic acid is given in Table II for compounds 2 and 3 by way of non-limiting examples: […]

O=C(CNS(=O)(=O)c1ccc(Cl)cc1)c1ccc2c(c1)CCC(C(=O)O)O2 (racemic) [Compound 27, dl-Lysine 6-(parachlorobenzenesulphonamidoacetyl)-2-chromancarboxylate]
solubility (Solubility in water): 10000 µg/mL (≈ 24.4 mM)

O=C(CNS(=O)(=O)c1ccc(Cl)cc1)c1ccc2c(c1)CC(C(=O)O)C2 (racemic) [Compound 29, dl-Lysine 5-(parachlorobenzenesulphonamidoacetyl)-2-indanecarboxylate]
solubility (Solubility in water): 5000 µg/mL (≈ 12.7 mM)

O=C(CNS(=O)(=O)c1ccc(Cl)cc1)c1ccc2c(c1)CC(C(=O)O)O2 (stereo not drawn) [Compound 1, 5-(parachlorobenzenesulphonamidoacetyl)-2,3-dihydro-2-benzofurancarboxylicacid]
IC50 [1]: 600 nM | fatality (conventional mice): not a single fatality | toxicity (conventional mice): atoxic | soluble in DMSO to give a solution of (Solubility in DMSO): 10%

O=C(O)C1Cc2cc(CCNS(=O)(=O)c3ccc(Cl)cc3)ccc2O1 (stereo not drawn) [Compound 2, 5-(2-parachlorobenzenesulphonamidoethyl)-2,3-dihydro-2-benzofurancarboxylic acid]
% inhibition of aggregation ([2]; 5 mg/kg orally): -64% | % inhibition of aggregation ([2]; 10 mg/kg orally): -98% | inhibition at 100 µM [3]: -100% | inhibition at 10 µM [3]: -79% | % inhibition of platelet aggregation ([3]; final concentration of compound 5.10^-6 M): -31% | IC50 [1]: 500 nM | fatality (conventional mice): not a single fatality | toxicity (conventional mice): atoxic | soluble in DMSO to give a solution of (Solubility in DMSO): 10%

O=C(O)C1Cc2cc(C(O)CNS(=O)(=O)c3ccc(Cl)cc3)ccc2O1 (stereo not drawn) [Compound 3, 5-(2-parachlorobenzenesulphonamido-1-hydroxyethyl)-2,3-dihydro-2-benzofurancarboxylic acid]
% inhibition of aggregation ([2]; 5 mg/kg orally): -43% | % inhibition of aggregation ([2]; 10 mg/kg orally): -74% | inhibition at 100 µM [3]: -86% | inhibition at 10 µM [3]: -7% | % inhibition of platelet aggregation ([3]; final concentration of compound 5.10^-5 M): -78% | IC50 [1]: 5000 nM | fatality (conventional mice): not a single fatality | toxicity (conventional mice): atoxic | soluble in DMSO to give a solution of (Solubility in DMSO): 10%

O=C(O)C1Cc2cc(CCNS(=O)(=O)c3ccc(Cl)cc3)ccc2O1 (stereo not drawn) [Compound 4, 5-(2-parachlorobenzenesulphonamidoethyl)-2,3-dihydro-2-benzofurancarboxylic acid monohydrate]
soluble in DMSO to give a solution of (Solubility in DMSO): 10%

CC(NS(=O)(=O)c1ccc(Cl)cc1)C(=O)c1ccc2c(c1)CC(C(=O)O)O2 (stereo not drawn) [Compound 5, 5-(α-methylparachlorobenzenesulphonamidoacetyl)-2,3-dihydro-2-benzofurancarboxylic acid]
soluble in DMSO to give a solution of (Solubility in DMSO): 10%

CC(NS(=O)(=O)c1ccc(Cl)cc1)C(O)c1ccc2c(c1)CC(C(=O)O)O2 (stereo not drawn) [Compound 6, 5-(2-Parachlorobenzenesulphonamido-1-hydroxypropyl)-2,3-dihydro-2-benzofurancarboxylic acid]
soluble in DMSO to give a solution of (Solubility in DMSO): 5%

O=C(O)C1CCc2cc(CCNS(=O)(=O)c3ccc(Cl)cc3)ccc2O1 (stereo not drawn) [Compound 7, 6-(2-Parachlorobenzenesulphonamidoethyl)-2-chromancarboxylic acid]
IC50 [1]: 500 nM | soluble in DMSO to give a solution of (Solubility in DMSO): 20%

O=C(O)C1Oc2ccc(CCNS(=O)(=O)c3ccc(Cl)cc3)cc2O1 (stereo not drawn) [Compound 8, 5-(2-Parachlorobenzenesulphonamidoethyl)-1,3-benzodioxole-2-carboxylic acid]
soluble in DMSO to give a solution of (Solubility in DMSO): 20%

O=C(O)C1Cc2ccc(CCNS(=O)(=O)c3ccc(Cl)cc3)cc2C1 (stereo not drawn) [Compound 9, 5-(2-parachlorobenzenesulphonamidoethyl)-2-indanecarboxylic acid]
soluble in DMSO to give a solution of (Solubility in DMSO): 10%

O=C(O)C1Cc2cc(CCNS(=O)(=O)c3ccc(Cl)cc3)ccc2S1 (stereo not drawn) [Compound 10, 5-(2-Parachlorobenzenesulphonamidoethyl)-2,3-dihydro-2-benzothiophenecarboxylic acid]
soluble in DMSO to give a solution of (Solubility in DMSO): 20%

O=C(O)c1cc2cc(CCNS(=O)(=O)c3ccc(Cl)cc3)ccc2o1 [Compound 11, 5-(2-Parachlorobenzenesulphonamidoethyl)-2-benzofurancarboxylic acid]
IC50 [1]: 2000 nM | soluble in DMSO to give a solution of (Solubility in DMSO): 5%

O=C(O)C1Cc2cc(C(CNS(=O)(=O)c3ccc(Cl)cc3)=NO)ccc2O1 (stereo not drawn) [Compound 13]
soluble in DMSO to give a solution of (Solubility in DMSO): 10%

CON=C(CNS(=O)(=O)c1ccc(Cl)cc1)c1ccc2c(c1)CC(C(=O)O)O2 (stereo not drawn) [Compound 14, 5-(2-parachlorobenzenesulphonamido-1-methoxyiminoethyl)-2,3-dihydro-2-benzofurancarboxylic acid]
soluble in DMSO to give a solution of (Solubility in DMSO): 10%

Cc1ccc(S(=O)(=O)N(C)CC(=O)c2ccc3c(c2)CC(C(=O)O)O3)cc1 (stereo not drawn) [Compound 16, 5-(N-methylparatoluenesulphonamidoacetyl)-2,3-dihydro-2-benzofurancarboxylic acid]
soluble in DMSO to give a solution of (Solubility in DMSO): 10%

O=C(O)C1Cc2cc(CCNS(=O)(=O)c3ccc(Cl)cc3)ccc2O1 (stereo not drawn) [Compound 17, Sodium 5-(2-parachlorobenzenesulphonamidoethyl)-2,3-dihydro-2-benzofurancarboxylate]
solubility (Solubility in water): 15000 µg/mL

CCOC(=O)C1CCc2cc(C(=O)CNS(=O)(=O)c3ccc(Cl)cc3)ccc2O1 (stereo not drawn) [Compound 20, ethyl 6-(parachlorobenzenesulphonamidoacetyl)-2-chromancarboxylate]
solubility in water (Solubility in water): insoluble in water | soluble in DMSO to give a solution of (Solubility in DMSO): 25%

O=C(CNS(=O)(=O)c1ccc(Cl)cc1)c1ccc2c(c1)CCC(C(=O)O)O2 (stereo not drawn) [Compound 21, 6-(parachlorobenzenesulphonamidoacetyl)-2-chromancarboxylic acid]
solubility in water (Solubility in water): insoluble in water | soluble in DMSO to give a solution of (Solubility in DMSO): 25%

O=C(CNS(=O)(=O)c1ccccc1)c1ccc2c(c1)CC(C(=O)O)O2 (stereo not drawn) [Compound 22, 5-(benzenesulphonamidoacetyl)-2,3-dihydro-2-benzofurancarboxylic acid]
solubility in water (Solubility in water): insoluble in water | soluble in DMSO to give a solution of (Solubility in DMSO): 25%

COc1ccc(S(=O)(=O)NCC(=O)c2ccc3c(c2)CC(C(=O)O)O3)cc1 (stereo not drawn) [Compound 23, 5-paramethoxybenzenesulphonamidoacetyl-2,3-dihydro-2-benzofurancarboxylic acid]
soluble in DMSO to give a solution of (Solubility in DMSO): 30%

O=C(CNS(=O)(=O)c1c(F)c(F)c(F)c(F)c1F)c1ccc2c(c1)CC(C(=O)O)O2 (stereo not drawn) [Compound 24, 5-Pentafluorobenzenesulphonamidoacetyl-2,3-dihydro-2-benzofurancarboxylic acid]
solubility in water (Solubility in water): insoluble in water | soluble in DMSO to give a solution of (Solubility in DMSO): 20%

O=C(CNS(=O)(=O)c1ccc(Cl)cc1)c1ccc2c(c1)CC(C(=O)O)O2 (stereo not drawn) [Compound 25, (dl)-Lysine 5-parachlorobenzenesulphonamidoacetyl-2,3-dihydro-2-benzofurancarboxylate trihydrate]
solubility (Solubility in water): 10000 µg/mL

O=C(O)C1CCc2cc(CCNS(=O)(=O)c3ccc(Cl)cc3)ccc2O1 (stereo not drawn) [Compound 26, (dl)-Lysine 6-(2-parachlorobenzenesulphonamidoethyl)-2-chromancarboxylate]
solubility (Solubility in water): 10000 µg/mL (≈ 25.3 mM)

O=C(CNS(=O)(=O)c1ccc(Cl)cc1)c1ccc2c(c1)CC(C(=O)O)C2 (stereo not drawn) [Compound 28, 5-(Parachlorobenzenesulphonamidoacetyl)-2-indanecarboxylic acid]
solubility in water (Solubility in water): insoluble in water | soluble in DMSO to give a solution of (Solubility in DMSO): 15%
